From ChEMBL document CHEMBL5042540, “Discovery of Pteridine-7(8H)-one Derivatives as Potent and Selective Inhibitors of Bruton's Tyrosine Kinase (BTK)” (J Med Chem, 2022)

Tests used:
in vivo [1] = settings: Sprague-Dawley, rat, iv, 1 mg/kg
in vivo [2] = settings: Sprague-Dawley, rat, iv, 1 mg/kg; remark: listed apart in the source
in vivo [3] = settings: Sprague-Dawley, rat, iv, 1 mg/kg; remark: listed apart in the source
in vivo [4] = settings: Sprague-Dawley, rat, po, 10 mg/kg
in vivo [5] = settings: Sprague-Dawley, rat, iv, 1 mg/kg; remark: listed apart in the source
in vivo [6] = settings: Sprague-Dawley, rat, po, 10 mg/kg; remark: listed apart in the source

C=CC(=O)Nc1cccc(-n2c(=O)c(C3CCCCC3)nc3cnc(Nc4cccc(OCCOC)c4)nc32)c1
half-life (in vivo [1]): 26.4 min | Vd (in vivo [2]): 1.16 L/kg | clearance (in vivo [3]): 58.2 mL/min/kg | bioavailability (in vivo [4]): 2.31% | AUC(0-t) (in vivo [5]): 290 ng·h/mL | AUC(0-t) (in vivo [6]): 66.9 ng·h/mL
